Measured values as given in ChEMBL document CHEMBL1201862, “PubChem BioAssay data set” (2004).
One block for each molecule: values may come before it. Activity calls are given as the source filed them.

Experiments:
[1] = target: T1, Short transient receptor potential channel 4 (Mus musculus, UniProt Q9QUQ5); assay: calcium entry via TRPC4 opening agents – cell-based, HEK293 TRPC4/mu-opioid, Fluo-4 calcium, dose response (AID 434937); assay type: functional
T1 sequence (Q9QUQ5 whole entry): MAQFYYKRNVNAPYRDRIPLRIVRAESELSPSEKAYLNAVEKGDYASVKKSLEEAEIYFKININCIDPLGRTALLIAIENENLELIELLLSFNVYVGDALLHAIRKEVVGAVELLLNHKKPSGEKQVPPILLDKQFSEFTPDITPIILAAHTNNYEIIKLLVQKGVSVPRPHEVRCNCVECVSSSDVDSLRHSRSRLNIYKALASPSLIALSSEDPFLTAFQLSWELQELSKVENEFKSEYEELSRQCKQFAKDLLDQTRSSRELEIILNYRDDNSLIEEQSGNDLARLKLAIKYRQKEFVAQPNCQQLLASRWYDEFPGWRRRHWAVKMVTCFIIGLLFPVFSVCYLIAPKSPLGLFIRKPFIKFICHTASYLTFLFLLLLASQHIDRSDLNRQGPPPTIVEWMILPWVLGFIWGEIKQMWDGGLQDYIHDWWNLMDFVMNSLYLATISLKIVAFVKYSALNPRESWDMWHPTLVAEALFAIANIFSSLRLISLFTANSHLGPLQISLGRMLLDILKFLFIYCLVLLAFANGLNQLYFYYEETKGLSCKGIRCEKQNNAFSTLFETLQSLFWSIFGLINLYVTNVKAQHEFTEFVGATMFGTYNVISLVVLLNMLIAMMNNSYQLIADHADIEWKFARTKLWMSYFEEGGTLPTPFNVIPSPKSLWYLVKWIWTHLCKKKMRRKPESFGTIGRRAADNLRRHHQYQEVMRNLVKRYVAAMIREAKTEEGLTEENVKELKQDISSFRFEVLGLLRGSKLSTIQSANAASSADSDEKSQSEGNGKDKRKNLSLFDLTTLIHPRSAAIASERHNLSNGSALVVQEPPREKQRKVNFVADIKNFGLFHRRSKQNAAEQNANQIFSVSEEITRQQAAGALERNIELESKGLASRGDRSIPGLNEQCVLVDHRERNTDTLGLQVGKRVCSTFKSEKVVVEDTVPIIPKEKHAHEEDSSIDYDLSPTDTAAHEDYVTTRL

[2] = target: Intestinal-type alkaline phosphatase (Homo sapiens, UniProt P09923); assay: human intestinal alkaline phosphatase activators, dose response, biochemical, luminescence, uHTS hits (AID 463120); assay type: functional
Sequence of Intestinal-type alkaline phosphatase (P09923 whole entry): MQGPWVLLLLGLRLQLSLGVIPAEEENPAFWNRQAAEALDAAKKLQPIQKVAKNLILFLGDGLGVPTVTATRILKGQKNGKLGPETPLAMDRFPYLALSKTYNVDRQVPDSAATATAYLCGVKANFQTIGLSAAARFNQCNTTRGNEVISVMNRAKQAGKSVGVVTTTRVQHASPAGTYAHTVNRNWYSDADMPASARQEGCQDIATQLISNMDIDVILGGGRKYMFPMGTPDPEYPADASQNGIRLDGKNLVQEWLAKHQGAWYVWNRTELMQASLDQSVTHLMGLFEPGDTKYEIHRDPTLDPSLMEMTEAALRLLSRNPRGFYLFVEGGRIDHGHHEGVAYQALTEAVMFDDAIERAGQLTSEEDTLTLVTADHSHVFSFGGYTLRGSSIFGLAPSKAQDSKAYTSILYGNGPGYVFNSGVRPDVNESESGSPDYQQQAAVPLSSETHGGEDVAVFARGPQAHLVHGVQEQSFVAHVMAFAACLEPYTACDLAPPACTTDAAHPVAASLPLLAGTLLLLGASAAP

[3] = target: T1, Short transient receptor potential channel 4; assay: block of DAMGO-driven TRPC4 calcium entry – cell-based, HEK293 TRPC4/mu-opioid, Fluo-4 calcium, dose response (AID 434942); assay type: functional;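 further: potency of inhibitors blocking the TRPC4 calcium response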
Keap1/Nrf2 = Keap1/Nrf2 (Homo sapiens, UniProt Q14145); assay: disruptors of Keap1 binding to Nrf2 peptide – biochemical, fluorescence polarization, cherry-picked samples, dose response (AID 588683)
Sequence of Keap1/Nrf2 (Q16236 whole entry): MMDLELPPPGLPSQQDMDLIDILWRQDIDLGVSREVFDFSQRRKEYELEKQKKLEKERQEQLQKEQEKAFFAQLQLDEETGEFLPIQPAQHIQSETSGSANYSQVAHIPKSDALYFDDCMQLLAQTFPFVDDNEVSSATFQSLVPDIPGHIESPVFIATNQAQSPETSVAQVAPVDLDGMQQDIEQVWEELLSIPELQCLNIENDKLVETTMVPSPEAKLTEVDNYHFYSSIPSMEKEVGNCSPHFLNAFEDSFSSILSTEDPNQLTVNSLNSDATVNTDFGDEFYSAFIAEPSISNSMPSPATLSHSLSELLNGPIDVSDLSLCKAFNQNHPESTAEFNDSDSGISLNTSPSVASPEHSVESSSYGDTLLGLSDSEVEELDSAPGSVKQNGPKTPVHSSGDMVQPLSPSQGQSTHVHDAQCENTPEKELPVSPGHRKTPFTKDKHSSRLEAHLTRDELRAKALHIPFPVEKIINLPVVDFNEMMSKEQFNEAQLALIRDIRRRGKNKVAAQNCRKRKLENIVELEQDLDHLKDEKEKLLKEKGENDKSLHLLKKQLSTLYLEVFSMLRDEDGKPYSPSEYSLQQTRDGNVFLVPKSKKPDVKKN
Sequence of Keap1/Nrf2 (Q14145 whole entry): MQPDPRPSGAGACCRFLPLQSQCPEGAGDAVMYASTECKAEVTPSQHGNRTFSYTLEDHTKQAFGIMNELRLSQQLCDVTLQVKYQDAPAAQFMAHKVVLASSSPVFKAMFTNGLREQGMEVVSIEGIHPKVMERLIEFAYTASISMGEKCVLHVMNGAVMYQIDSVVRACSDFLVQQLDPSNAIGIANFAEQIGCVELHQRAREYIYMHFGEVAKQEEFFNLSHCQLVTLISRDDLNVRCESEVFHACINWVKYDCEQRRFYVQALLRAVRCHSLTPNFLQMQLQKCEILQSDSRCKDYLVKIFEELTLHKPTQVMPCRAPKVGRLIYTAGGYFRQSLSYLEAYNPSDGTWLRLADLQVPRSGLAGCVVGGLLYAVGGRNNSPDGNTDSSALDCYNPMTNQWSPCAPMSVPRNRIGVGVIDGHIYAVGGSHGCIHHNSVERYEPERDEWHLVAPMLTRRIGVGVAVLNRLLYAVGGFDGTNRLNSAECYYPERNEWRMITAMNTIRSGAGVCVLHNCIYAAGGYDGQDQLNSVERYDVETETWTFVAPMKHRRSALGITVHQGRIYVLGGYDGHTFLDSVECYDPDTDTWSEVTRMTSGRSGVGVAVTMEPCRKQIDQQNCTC

Mu-type opioid receptor [4] = target: T2, Mu-type opioid receptor (Homo sapiens, UniProt P35372); assay: mu opioid receptor blockers – image-based, SAR follow-up (AID 2420); assay type: functional;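 further: compounds added before stimulation of receptor with agonist DAMGO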
T2 sequence (P35372 whole entry): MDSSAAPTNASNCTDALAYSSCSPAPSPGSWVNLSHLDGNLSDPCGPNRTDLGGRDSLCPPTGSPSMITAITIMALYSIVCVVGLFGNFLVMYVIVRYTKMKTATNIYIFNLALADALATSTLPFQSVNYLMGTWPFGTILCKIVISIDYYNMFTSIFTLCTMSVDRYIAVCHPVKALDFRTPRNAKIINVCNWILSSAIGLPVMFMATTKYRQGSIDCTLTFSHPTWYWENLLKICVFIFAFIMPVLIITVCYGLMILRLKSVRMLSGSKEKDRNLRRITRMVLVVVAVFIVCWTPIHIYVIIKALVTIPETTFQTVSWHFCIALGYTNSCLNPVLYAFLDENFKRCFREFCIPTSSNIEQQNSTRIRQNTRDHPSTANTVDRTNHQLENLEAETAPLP

[5] = target: T3, Delta-type opioid receptor (Homo sapiens, UniProt P41143); assay: DOR agonists, SAR follow-up, image-based (AID 2370); assay type: functional
T3 sequence (P41143 whole entry): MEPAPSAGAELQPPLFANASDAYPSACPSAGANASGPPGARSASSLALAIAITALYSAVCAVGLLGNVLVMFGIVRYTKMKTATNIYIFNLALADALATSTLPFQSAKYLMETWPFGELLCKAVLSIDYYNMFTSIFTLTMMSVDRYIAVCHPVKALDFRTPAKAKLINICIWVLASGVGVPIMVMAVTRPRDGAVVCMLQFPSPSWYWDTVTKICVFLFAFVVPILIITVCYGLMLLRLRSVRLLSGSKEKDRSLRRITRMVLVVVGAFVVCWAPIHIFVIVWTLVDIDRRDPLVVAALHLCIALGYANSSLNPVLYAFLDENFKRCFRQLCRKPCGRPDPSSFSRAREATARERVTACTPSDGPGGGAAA

[6] = target: T4, Kappa-type opioid receptor (Homo sapiens, UniProt P41145); assay: kappa opioid receptor blockers, cell-based, luminescence, beta-arrestin, SAR follow-up (AID 2285); assay type: functional
T4 sequence (P41145 whole entry): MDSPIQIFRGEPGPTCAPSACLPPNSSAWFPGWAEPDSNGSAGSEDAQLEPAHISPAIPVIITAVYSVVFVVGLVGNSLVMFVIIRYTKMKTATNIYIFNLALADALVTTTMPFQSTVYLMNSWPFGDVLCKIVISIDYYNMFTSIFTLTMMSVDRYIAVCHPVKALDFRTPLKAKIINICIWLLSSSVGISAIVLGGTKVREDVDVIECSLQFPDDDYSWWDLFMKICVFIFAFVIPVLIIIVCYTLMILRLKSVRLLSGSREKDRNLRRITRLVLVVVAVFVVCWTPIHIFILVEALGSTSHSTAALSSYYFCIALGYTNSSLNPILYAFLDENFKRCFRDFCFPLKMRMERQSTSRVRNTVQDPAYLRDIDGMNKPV

[7] = target: T4, Kappa-type opioid receptor; assay: kappa opioid receptor activation potency – imaging, image-based, SAR follow-up (AID 2359); assay type: functional
Mu-type opioid receptor [8] = target: T2, Mu-type opioid receptor; assay: mu opioid receptor activators, image-based, SAR follow-up (AID 2352); assay type: functional
[9] = target: T3, Delta-type opioid receptor; assay: delta opioid receptor blockers – image-based, SAR follow-up (AID 2357); assay type: functional
[10] = target: T4, Kappa-type opioid receptor; assay: kappa opioid receptor blockers, image-based, SAR follow-up (AID 2348); assay type: functional
[11] = target: T5, E3 ubiquitin-protein ligase XIAP (Homo sapiens, UniProt P98170); assay: Counter Screen using XIAP-Bir3 for Chemical Antagonists of Bir1/2 domains of IAP-family anti-apoptotic proteins. [Related pubchem assays (depositor defined):AID1018, AID1449, AID1514, AID1638, AID1749, AID1750, AID488957, AID488963]
T5 sequence (P98170 whole entry): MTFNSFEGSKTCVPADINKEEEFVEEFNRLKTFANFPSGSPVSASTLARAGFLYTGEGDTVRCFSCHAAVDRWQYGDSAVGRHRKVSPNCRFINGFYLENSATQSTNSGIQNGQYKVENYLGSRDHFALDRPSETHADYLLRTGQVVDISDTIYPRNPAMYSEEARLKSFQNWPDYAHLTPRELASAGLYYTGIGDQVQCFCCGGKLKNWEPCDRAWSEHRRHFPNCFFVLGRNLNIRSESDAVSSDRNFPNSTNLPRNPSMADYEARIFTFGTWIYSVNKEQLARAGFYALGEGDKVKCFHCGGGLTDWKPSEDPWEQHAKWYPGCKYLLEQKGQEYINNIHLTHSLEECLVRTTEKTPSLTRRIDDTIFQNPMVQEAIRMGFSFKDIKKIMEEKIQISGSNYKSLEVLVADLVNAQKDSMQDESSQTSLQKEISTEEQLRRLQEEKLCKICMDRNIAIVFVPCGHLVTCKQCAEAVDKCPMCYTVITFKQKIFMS

[12] = target: T5, E3 ubiquitin-protein ligase XIAP; assay: small molecules displacing peptide from XIAP – biochemical, IAP family, fluorescence polarization (AID 1018); assay type: functional
[13] = target: Type-1 angiotensin II receptor (Homo sapiens, UniProt P30556); assay: antagonism of angiotensin II type 1 receptor – cell-based, uHTS hits, selectivity assay for APJ receptor antagonist project, dose response (AID 463214); assay type: functional;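 further: antagonist potency against angiotensin II stimulated AT1 response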
Sequence of Type-1 angiotensin II receptor (P30556 whole entry): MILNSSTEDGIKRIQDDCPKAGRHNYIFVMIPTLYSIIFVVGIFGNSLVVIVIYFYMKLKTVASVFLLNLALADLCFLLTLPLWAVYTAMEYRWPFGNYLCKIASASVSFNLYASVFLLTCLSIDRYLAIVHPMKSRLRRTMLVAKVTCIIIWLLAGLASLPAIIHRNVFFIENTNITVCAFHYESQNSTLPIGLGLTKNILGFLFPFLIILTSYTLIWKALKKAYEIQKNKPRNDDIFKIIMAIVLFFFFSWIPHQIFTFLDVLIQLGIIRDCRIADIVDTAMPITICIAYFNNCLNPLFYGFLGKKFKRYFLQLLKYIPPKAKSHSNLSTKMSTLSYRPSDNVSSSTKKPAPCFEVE

Beta-galactosidase = Beta-galactosidase (Escherichia coli, UniProt Q8VNN2); assay: PubChem AID 485352; assay type: functional
Sequence of Beta-galactosidase (Q8VNN2 whole entry): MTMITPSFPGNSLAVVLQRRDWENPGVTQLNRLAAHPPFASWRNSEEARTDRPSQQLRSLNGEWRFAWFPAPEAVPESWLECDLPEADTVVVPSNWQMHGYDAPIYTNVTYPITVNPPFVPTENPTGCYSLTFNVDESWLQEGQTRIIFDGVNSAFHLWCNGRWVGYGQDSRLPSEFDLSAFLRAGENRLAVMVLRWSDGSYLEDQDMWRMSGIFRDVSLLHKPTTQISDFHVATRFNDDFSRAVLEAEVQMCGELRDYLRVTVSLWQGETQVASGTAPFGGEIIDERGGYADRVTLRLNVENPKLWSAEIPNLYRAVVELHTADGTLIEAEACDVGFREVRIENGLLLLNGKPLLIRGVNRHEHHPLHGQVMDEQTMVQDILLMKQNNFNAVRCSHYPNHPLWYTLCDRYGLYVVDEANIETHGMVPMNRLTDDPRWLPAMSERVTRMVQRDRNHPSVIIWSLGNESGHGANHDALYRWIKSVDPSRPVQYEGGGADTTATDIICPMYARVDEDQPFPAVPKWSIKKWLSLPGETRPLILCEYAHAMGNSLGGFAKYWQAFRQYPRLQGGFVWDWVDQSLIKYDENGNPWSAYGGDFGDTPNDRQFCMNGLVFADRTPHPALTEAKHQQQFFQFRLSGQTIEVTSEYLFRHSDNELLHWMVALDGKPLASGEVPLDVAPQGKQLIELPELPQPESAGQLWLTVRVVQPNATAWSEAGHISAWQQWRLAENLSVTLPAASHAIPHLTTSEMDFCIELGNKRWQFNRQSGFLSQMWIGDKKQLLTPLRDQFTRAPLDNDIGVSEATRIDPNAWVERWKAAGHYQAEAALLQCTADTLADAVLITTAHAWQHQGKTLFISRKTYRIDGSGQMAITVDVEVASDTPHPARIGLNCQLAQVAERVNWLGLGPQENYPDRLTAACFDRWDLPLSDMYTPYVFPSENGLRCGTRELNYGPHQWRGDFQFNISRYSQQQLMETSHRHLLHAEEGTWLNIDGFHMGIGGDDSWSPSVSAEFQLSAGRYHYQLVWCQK

[14] = target: FAD-linked sulfhydryl oxidase ALR (Homo sapiens, UniProt P55789); assay: ALR-catalysed DTT oxidation blockers – biochemical, H2O2 detection, luminescence, cherry-pick, dose response (AID 493248)
Sequence of FAD-linked sulfhydryl oxidase ALR (P55789 whole entry): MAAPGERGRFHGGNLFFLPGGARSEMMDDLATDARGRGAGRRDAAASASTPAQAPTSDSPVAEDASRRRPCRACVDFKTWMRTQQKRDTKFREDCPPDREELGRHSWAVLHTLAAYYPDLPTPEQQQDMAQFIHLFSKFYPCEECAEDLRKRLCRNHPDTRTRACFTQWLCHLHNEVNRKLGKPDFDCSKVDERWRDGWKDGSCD

Leucine aminopeptidase = target: T6, Leucine aminopeptidase (Plasmodium falciparum 3D7, UniProt Q8IL11); assay: P. falciparum M17LAP inhibitors, primary screen, biochemical, fluorogenic H-Leu-NHMec substrate, 1536-well (AID 1619); assay type: functional
T6 sequence (Q8IL11 whole entry): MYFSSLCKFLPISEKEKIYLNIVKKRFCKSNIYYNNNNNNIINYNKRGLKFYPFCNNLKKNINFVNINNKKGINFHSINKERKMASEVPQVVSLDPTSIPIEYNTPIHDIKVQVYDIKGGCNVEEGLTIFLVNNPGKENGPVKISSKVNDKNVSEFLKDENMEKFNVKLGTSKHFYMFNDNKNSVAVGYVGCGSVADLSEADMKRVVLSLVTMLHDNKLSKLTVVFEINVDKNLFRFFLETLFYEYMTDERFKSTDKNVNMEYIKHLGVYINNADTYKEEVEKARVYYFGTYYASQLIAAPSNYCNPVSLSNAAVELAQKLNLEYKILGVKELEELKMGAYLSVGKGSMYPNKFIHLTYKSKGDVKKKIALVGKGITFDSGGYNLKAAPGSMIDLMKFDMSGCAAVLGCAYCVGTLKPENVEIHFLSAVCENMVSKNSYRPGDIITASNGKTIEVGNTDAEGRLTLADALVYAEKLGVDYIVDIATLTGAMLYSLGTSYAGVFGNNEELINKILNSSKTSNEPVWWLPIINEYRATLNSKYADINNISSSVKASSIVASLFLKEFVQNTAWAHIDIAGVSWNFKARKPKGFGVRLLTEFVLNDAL

[15] = viability of HCT116 lacking mutant beta-catenin – cell-based, human colon tumor, dose response (AID 1045); assay type: functional;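 further: HCT116 colon tumor cells with beta catenin knocked out; cells exposed to compound for 60 hours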
[16] = viability of PTEN-deleted HCT116 cells – cell-based, HCT116 PTEN knockout, dose response (AID 1047); assay type: functional;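 further: HCT116 colon tumor cells with PTEN knocked out; cells exposed to compound for 60 hours before readout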
BJ [17] = assay: cells; assay type: functional, cell-based; conditions: Homo sapiens
BJ [18] = assay: BJ-TERT-LT-ST fibroblast viability loss – cell-based, RAS-independent, luminescence, dose response (AID 1935); assay type: functional; conditions: Homo sapiens;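 further: BJ fibroblasts immortalized with TERT plus LT and ST oncogenes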
Beta Lactamase = Beta Lactamase (Pseudomonas aeruginosa, UniProt Q932Y6); assay: BLA reporter interference, concentration series – BLA reporter cells, FRET fluorescence, artefact control for TLR9-MyD88 binding inhibitor project, dose response (AID 588341); assay type: cell-based;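 further: cell based assay in CHO-K1 cells stably expressing beta-lactamase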
BJ [19] = assay: BJ-TERT fibroblast viability loss – cell-based, RAS-independent, luminescence, dose response (AID 1933); assay type: functional; conditions: Homo sapiens
CHO = CHO cell viability loss, potency – luminescence, cytotoxicity control for TLR9-MyD88 binding inhibitor project, dose response (AID 588339); assay type: functional, cell-based, hamster; conditions: Cricetulus griseus;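 further: CHO cells stably coexpressing TLR9 and MyD88 fusions from primary screen; compound exposure lasted 48 hours before viability readout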
[20] = DRD fibroblast viability loss – cell-based, non-viral oncogenic, luminescence, dose response (AID 1934); assay type: functional; conditions: Homo sapiens
[21] = target: T7, Zinc finger protein mex-5 (Caenorhabditis elegans, UniProt Q9XUB2); assay: potency of MEX-5 RNA-binding blockers – biochemical, C. elegans, fluorescence polarization, dose response (AID 1960)
T7 sequence (Q9XUB2 whole entry): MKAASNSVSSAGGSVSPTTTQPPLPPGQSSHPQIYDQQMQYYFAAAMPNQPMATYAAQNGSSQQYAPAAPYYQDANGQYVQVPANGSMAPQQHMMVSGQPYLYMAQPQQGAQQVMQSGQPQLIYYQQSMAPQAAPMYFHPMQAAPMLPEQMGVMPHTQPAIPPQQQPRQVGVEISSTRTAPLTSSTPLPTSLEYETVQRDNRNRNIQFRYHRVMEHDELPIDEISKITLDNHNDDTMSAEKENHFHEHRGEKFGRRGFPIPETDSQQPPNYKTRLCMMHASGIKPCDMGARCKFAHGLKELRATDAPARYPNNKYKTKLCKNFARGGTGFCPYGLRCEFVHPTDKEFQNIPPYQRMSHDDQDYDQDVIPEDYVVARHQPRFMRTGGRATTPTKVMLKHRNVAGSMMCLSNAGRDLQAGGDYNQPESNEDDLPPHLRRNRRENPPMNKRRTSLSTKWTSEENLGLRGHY

[22] = target: T8, RNA-binding protein pos-1 (Caenorhabditis elegans, UniProt G5EF15); assay: disruptors of C. elegans POS-1 RNA interaction – biochemical, fluorescence polarization, dose response (AID 1964);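 further: purified POS-1 fused to maltose binding protein made in E. coli; potency of compounds blocking POS-1 binding to fluorescent RNA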
T8 sequence (G5EF15 whole entry): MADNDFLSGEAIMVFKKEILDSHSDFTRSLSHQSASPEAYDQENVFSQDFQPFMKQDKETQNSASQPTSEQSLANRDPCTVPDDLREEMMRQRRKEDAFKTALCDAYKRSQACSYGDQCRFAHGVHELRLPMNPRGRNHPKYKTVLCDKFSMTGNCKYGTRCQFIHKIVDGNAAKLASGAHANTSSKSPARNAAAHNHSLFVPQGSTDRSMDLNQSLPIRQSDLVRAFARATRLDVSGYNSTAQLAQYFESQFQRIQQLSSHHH

SMILES: COc1cccc(/C=C/C(=O)OCC(=O)NC(=O)NC2CCCC2)c1
- AC50 (Keap1/Nrf2): > 52 µM (inactive)

SMILES: Cc1cccc(NC(=S)NNc2ncc(C(F)(F)F)cc2Cl)c1
- IC50 [13]: 13.1 µM (active)
- EC50 (Beta-galactosidase): > 40 µM (inactive)

SMILES: O=C1Nc2ccc(Br)cc2/C1=N/N=C/C1=C(N2CCOCC2)C(=C\c2ccccc2)/CC1
- EC50 [15]: 11.4 µM (active)
- EC50 [16]: 9.88 µM (active)
- IC50 [13]: > 40 µM (not active)
- EC50 (Beta-galactosidase): > 40 µM (inactive)

SMILES: Cc1ccc(Cl)c(NC(=O)COC(=O)c2ccccc2C(=O)c2ccc(Cl)c([N+](=O)[O-])c2)c1Cl
- EC50 (BJ [17]): 16.8 µM (inconclusive)
- EC50 (BJ [18]): 3.87 µM (inconclusive)
- IC50 (Beta Lactamase): > 49.8 µM (inactive)
- EC50 (BJ [19]): 2.71 µM (active)
- IC50 (CHO): 12.6 µM (inactive)
- EC50 [20]: 7.58 µM (active)

Second part, the molecule after the results:

- EC50 [1]: 5.31 µM (active)
- EC50 [2]: > 100 µM (inactive)
- EC50 [3]: 3.76 µM (active)
SMILES: C/C(=N/NC(=O)c1ccc(Cn2cccn2)o1)c1cccc(NC(=O)c2ccncc2)c1

- IC50 (Mu-type opioid receptor [4]): > 32 µM (inactive)
- EC50 [5]: > 32 µM (inactive)
- IC50 [6]: > 10 µM (inactive)
- EC50 [7]: > 32 µM (inactive)
- EC50 (Mu-type opioid receptor [8]): > 32 µM (inactive)
- IC50 [9]: > 32 µM (inactive)
- IC50 [10]: 6.02 µM (active)
SMILES: O=C(NC(NC(=S)Nc1ccc(F)cc1)C(Cl)(Cl)Cl)OCc1ccccc1 (centres undefined)

- IC50 (Mu-type opioid receptor [4]): > 32 µM (inactive)
- EC50 [5]: > 32 µM (inactive)
- IC50 [6]: > 10 µM (inactive)
- EC50 [7]: > 32 µM (inactive)
- EC50 (Mu-type opioid receptor [8]): > 32 µM (inactive)
- IC50 [9]: > 32 µM (inactive)
- IC50 [10]: > 32 µM (inactive)
SMILES: COc1ccc(S(=O)(=O)NCc2ccc(C(=O)N3CCN(Cc4ccccc4)CC3)cc2)cc1

- IC50 [11]: > 100 µM (inactive)
- IC50 [12]: > 100 µM (not active)
SMILES: O=[N+]([O-])c1ccccc1S(=O)(=O)N1CCCCC1

- AC50 [14]: 2.37 µM (active)
- IC50 (Leucine aminopeptidase): 5.87 µM (active)
- IC50 [11]: > 100 µM (inactive)
- IC50 [12]: > 100 µM (not active)
SMILES: CSc1cccc(NC(=O)CN2C(=O)c3ccccc3S2(=O)=O)c1

- EC50 [21]: 8.22 µM (active)
- AC50 (Keap1/Nrf2): > 52 µM (inactive)
- EC50 [22]: 12.4 µM (active)
SMILES: COc1ccc(Nc2nc(-c3cccnc3)nc3ccccc23)cn1
